# Measurements reported in patent publication US9982256B2, “Random RNAi libraries, methods of generating same, and screening methods utilizing same” (The Trustees of the University of Pennsylvania, priority 2006, dated 2018).
# Key:
# [1] = test system: FL5.12 cells; assay: Survival of shRNA-infected FL5.12 cells after IL-3 withdrawal (flow cytometry, GFP/PI); assay type: cell-based, murine; conditions: 15 hours into second IL-3 withdrawal, after 1 round of withdrawal and recovery; 6 independent infections; p<0.0001, Student's t-test
# Method: High-titer retrovirus was generated by co-transfecting 293T cells with retroviral vector and pCL-Eco, which encodes both ecotropic envelope and gag-pol proteins, using an Effectene® transfection kit (Qiagen). Culture supernatant was harvested each day from 24-72 hours after transfection and used either to infect FL5.12 cells or frozen at ^−80° C. for future use. 1-2 million cells were seeded in each well of a 24-well plate and were centrifuged at 2500×g for 1 hour with viral supernatant, 5 μg/ml polybrene, and 0.3 ng/ml interleukin-3 (IL-3). Cells were stored in the incubator for 2 hours. Viral supernatant was replaced with fresh batches, and the spin/incubation process was repeated 2 more times. Infection efficiency was determined 24-48 hours later by flow cytometric analysis of GFP expression.
# The murine pro-B cell line FL5.12 is IL-3 dependent; 100% of the cells die by apoptosis after IL-3 withdrawal for 3 days, and >90% of cells can be rescued by expression of Bcl-xL59. […]
# 10 shRNA-encoding sequences (“books”) were retrieved by PCR, cloned back into pSiren, and sequenced. […] After 15 hours, cells were analyzed by flow cytometry, identifying infected cells by GFP fluorescence and dead cells by propidium iodide (PI) staining. […]
# [2] = test system: caspase 3; assay: Caspase 3 enzymatic activity in book-infected FL5.12 cells; assay type: cell-based, murine; conditions: correlated with the improved survival after IL-3 withdrawal
# Method: (§1) 10 shRNA-encoding sequences (“books”) were retrieved by PCR, cloned back into pSiren, and sequenced. Of the 10, two were the same (books 1 and 7), indicating selective enrichment. FL5.12 cells were infected with 3 of the putative shRNA molecules separately (books 1, 3, and 8), each one assayed in 6 independent infections. The cells were subjected to 1 round of IL-3 withdrawal and recovery and subjected to a second withdrawal from IL-3. After 15 hours, cells were analyzed by flow cytometry, identifying infected cells by GFP fluorescence and dead cells by propidium iodide (PI) staining. Fractions of GFP-positive (infected), PI-negative (live) cells relative to the start of the experiment (just prior to the first IL-3 withdrawal) are depicted in FIG. 16. […] The improved survival with books 1 and 3 correlated with a decrease in caspase 3 enzymatic activity. Because the cycling of IL-3 withdrawal included a recovery segment, books 1 and 3 were tested for effects on growth rate and none were seen. The stem sequences of books 1 and 3 are as follows: […]
# [3] = test system: FL5.12 cells; assay: Growth rate of book-infected FL5.12 cells; assay type: cell-based, murine
# Method: as §1
# [4] = test system: primary FRDA fibroblasts; assay: Glutathione depletion with BSO: viability of primary FRDA fibroblasts; assay type: cell-based; conditions: 1 mM BSO in media with 0.3 mg/ml fully saturated human transferrin; 48 hours; 6-well plate
# Method: (§2) Primary FRDA fibroblasts are far more sensitive to oxidative stress than normal control fibroblasts. (Jauslin et al. (Hum Molec Gen 11: 3055, 2002) used L-buthionine (S,R)-sulfoximine (BSO) to block the rate-limiting enzyme in glutathione synthesis, and found a concentration (0.05 mM) at which virtually all primary FRDA fibroblasts lose viability, but more than 90% of normal control fibroblasts retain viability.)
# (§3) […] […] By washing the cells, adding back their normal medium, and looking for colony formation, the minimum conditions under which 100% of the cells die were confirmed.
# [5] = test system: normal control fibroblasts; assay: Glutathione depletion with BSO: viability of normal control fibroblasts; assay type: cell-based; conditions: 1 mM BSO in media with 0.3 mg/ml fully saturated human transferrin; 48 hours
# Method: as §2, §3
# [6] = test system: primary FRDA fibroblasts; conditions: 0.05 mM BSO; Jauslin et al. 2002; cited from earlier work
# [7] = test system: normal control fibroblasts; conditions: 0.05 mM BSO; Jauslin et al. 2002; cited from earlier work
# [8] = test system: 293T cells; assay: Overnight CDDO treatment of 293T cells, to establish an apoptosis assay; assay type: cell-based, human; conditions: for adherent cells remaining after treatment: then medium without CDDO
# Method: 293T cells (a human, embryonic kidney cell line) were treated overnight (16 hours) with 2, 4, 6, and 8 μM of the synthetic triterpenoid, CDDO.
molecule,measurement,setting,value
"5′-GGGTAGCTACATTTGCATATGTGGATATG-3′ (listed as DNA, chemistry not given here) [Book 1, books 1 and 7 were the same]","survival (GFP-positive, PI-negative cells) relative to random book (ctr153) or vector alone (pSiren)",[1],statistically significant improvement in survival
same,caspase 3 enzymatic activity,[2],decrease
same,effects on growth rate,[3],none
"5′-GTGGATCAGTGTGTTATAGCTCGGGCAGG-3′ (listed as DNA, chemistry not given here) [Book 3]","survival (GFP-positive, PI-negative cells) relative to random book (ctr153) or vector alone (pSiren)",[1],statistically significant improvement in survival
same,caspase 3 enzymatic activity,[2],decrease
same,effects on growth rate,[3],none
"CCCCS(=N)(=O)CCC(N)C(=O)O [BSO, L-buthionine (S,R)-sulfoximine]",viability of FRDA cells,[4],all the cells in a 6-well plate nonviable
same,age- and passage-matched controls remaining viable,[5],majority
same,primary FRDA fibroblasts losing viability,[6],virtually all
same,normal control fibroblasts retaining viability,[7],more than 90%
CC1(C)CC[C@]2(C(=O)O)CC[C@]3(C)[C@H](C(=O)C=C4[C@@]5(C)C=C(C#N)C(=O)C(C)(C)[C@@H]5CC[C@]43C)[C@@H]2C1 [CDDO],adherent cells remaining after treatment,[8]; 2 μM CDDO overnight (16 hours),some adherent cells
same,adherent cells remaining after treatment,[8]; 4 μM CDDO overnight (16 hours),no remaining adherent cells
same,adherent cells remaining after treatment,[8]; 6 μM CDDO overnight (16 hours),no remaining adherent cells
same,adherent cells remaining after treatment,[8]; 8 μM CDDO overnight (16 hours),no remaining adherent cells
same,adherent colonies after post-treatment culture,"[8]; repeat with 4 μM CDDO, five days of post-treatment culture in medium without CDDO",no adherent colonies were evident
